Data as given in article PMC8567874, “Metronomic delivery of orally available pemetrexed-incorporated colloidal dispersions for boosting tumor-specific immunity” (Drug Delivery, 2021).

Key:
[1] = In vitro Caco-2 cell monolayer permeability; assay type: in vitro ADME; details: human, equivalent to 50 µg/mL PMX, n = 7, read-out: Apparent permeability (Papp)
Procedure: To compare the in vitro apparent permeability (Papp) of PMX, PMX/DL(1:1), PMX/DL(1:2), PMX/DL(1:1)-CD, and PMX/DL(1:2)-CD across a Caco-2 (ATCC® HTB-37™; American Type Culture Collection, Manassas, VA, USA) cell monolayer, Caco-2 cells were seeded onto 24-well Transwell® filter inserts in Dulbecco's modified Eagle's medium (DMEM) containing 10% (v/v) fetal bovine serum and 1% penicillin/streptomycin, at a density of 1 × 10^5 cells/well, cultured for 14–16 days to form a confluent monolayer with the transepithelial electrical resistance (TEER) >350 Ω·cm^2. After the media in the apical and basolateral compartments were replaced with Hank’s balanced salt solution (HBSS) and stabilized for 20 min at 37 °C, 100 µL of the drug solution diluted with HBSS (equivalent to 50 µg/mL PMX) and 600 µL of HBSS were loaded into the apical and basolateral compartments in each well, respectively. During incubation at 37 °C, 100 µL of sample solution was withdrawn from each basolateral compartment, and the volume was replaced using fresh HBSS at 0.5, 1, 2, 3, 4, and 5 h. After passing through a polyvinylidene fluoride (PVDF) membrane filter (pore size: 0.45 µm), the concentration of PMX in each sample solution was measured using the HPLC system at 254 nm, with a Luna C18 column (4.6 × 250 mm, 5 µm, 100 Å) at 25 °C. […]

CT26.CL25 cells = experiment: Immunoblotting of CRT and HMGB-1; assay type: cell-based; details: CT26.CL25, 300 µM, 48 h, western blot
Procedure: CT26.CL25 cells (1 × 10^5 per well) cultured in 6-well plates were treated with 300 µM DL, 300 µM PMX or PMX/DL (equivalent 300 µM PMX) for 48 h. The cells were then lysed in RIPA buffer with protease and phosphatase inhibitors (GenDEPOT, Barker, TX, USA). Each sample was loaded with 20 µg of protein and fractionated using SDS-PAGE (Biosesang, Gyeonggi-do, South Korea), followed by wet transfer to nitrocellulose membrane (Bio-Rad Laboratories, Inc., Hercules, CA, USA). Anti-CRT, anti-HMGB-1, GAPDH rabbit mAb (Cell Signaling Technology, Danvers, MA, USA), and anti-rabbit IgG peroxidase (Sigma–Aldrich) antibodies were used.

[2] = tested on: CT26.CL25 tumor-bearing mice; experiment: In vivo immunostimulatory effects in CT26.CL25 tumor-bearing mice (flow cytometry, ELISPOT, slide staining); details: 3 weeks, PMX 150 mg/kg IV every 3 weeks, PMX/DL-CD oral daily 20 mg/kg PMX
Procedure: To investigate in vivo immunostimulatory effects of oral metronomic PMX, BALB/c mice were inoculated with 1 × 10^6 of CT26.CL25 cells per mouse. The mice were randomly divided into three groups (10 mice per group) once the tumor volume had reached 50–70 mm^3: control (untreated), PMX-IV (150 mg/kg PMX administered IV every 3 weeks), and PMX/DL-CD (oral PMX/DL(1:1)-CD administered daily, equivalent to 20 mg/kg PMX). The mice were sacrificed 3 weeks after treatment and the tumors were isolated. The tumor tissues were converted into single cells by passing them through a 40-µm filter after digestion with collagenase A (0.2% w/v), DNAse (30 U/mL), and dispase (10 U/mL) in MACS (gentleMACS Octo Dissociator with Heaters; Miltenyi Biotec, Bergisch Gladbach, Germany) at 37 °C for 45 min. Some cells were collected for tumor-infiltrating lymphocyte analyses and centrifuged using histopaque-1077 for 20 min at 450 g to isolate the lymphocytes. The isolated cells were then stained with fluorescence-conjugated antibodies and incubated. The cells were washed and suspended in FACS buffer and then collected into FACS tubes. The cells were then analyzed using flow cytometry (FACS Aria II) and the data were analyzed using FlowJo software (FlowJo LLC, Ashland, OR, USA). Cell populations were acquired by gating, as follows: tumor-infiltrating lymphocytes (DAPI^−/CD45^+), helper T cells (DAPI^−/CD45^+/CD3^+/CD4^+), PD-L1-expressing tumor cells (DAPI^−/CD45^−/PD-L1^+), proliferating cytotoxic T cells (DAPI^−/CD45^+/CD3^+/CD8^+/ki67^+), and IFN-γ-secreting T cells (DAPI^−/CD45^+/CD3^+/CD8^+/IFN-γ^+).
Lymphocytes were isolated from the tumors using the procedure described previously; 2 × 10^5 tumor lymphocytes per well, along with β-gal (5 µg/mL), were incubated on pre-coated 96-well plates in CTL test medium for 24 h at 37 °C with 9% CO2. […] After the procedure, the plates were scanned and the spots were counted in the ELISpot counter (Immunospot® S6 ULTIMATE analyzer; Cellular Technology Ltd.). […]

[3] = tested on: CT26.CL25 tumor-bearing mice; assay type: in vivo; details: 27 days after drug treatment, IV 150 mg/kg PMX
Procedure: To investigate the antitumor efficacy of oral PMX/DL(1:1)-CD and IV PMX given in combination with intraperitoneal aPD-1, 1 × 10^6 of CT26.CL25 cells in 100 µL of PBS (pH 7.4) were subcutaneously inoculated into each BALB/c mouse. When the average tumor volume reached 50–70 mm^3, mice were randomly divided into seven groups (10 mice per group): control (untreated), PMX-IV (150) (IV administration of 150 mg/kg PMX once every 3 weeks), aPD-1 (10) (intraperitoneal administration of 10 mg/kg aPD-1 once every 3 days), PMX-Oral (20) (once-daily oral administration equivalent to 20 mg/kg PMX), PMX/DL-CD (20) [once-daily oral administration PMX/DL(1:1)-CD equivalent to 20 mg/kg PMX], PMX-IV (150) + aPD-1 (10) (combination of IV administration of 150 mg/kg PMX once every 3 weeks, and intraperitoneal administration of 10 mg/kg aPD-1 once every 3 days), and PMX/DL-CD (20) + aPD-1 (10) (a combination of once-daily oral administration of PMX/DL(1:1)-CD equivalent to 20 mg/kg PMX and intraperitoneal administration of 10 mg/kg aPD-1 once every 3 days). During treatments, body weights and tumor volumes of mice in all seven groups were monitored once every 3 days, for 27 days. Tumor volumes in each mouse were calculated based on the following formula: 0.52 × a^2 × b, where a and b were the tumor widths and lengths, respectively.

[4] = Octanol/water apparent partition coefficient; assay type: physicochemical; details: n = 4, read-out: Log P (logarithm of the octanol/water partition coefficient)
Excerpt: ^aLogarithm of the octanol/water partition coefficient. Each value represents the mean ± standard deviation (n = 4).

Nc1nc2[nH]cc(CCc3ccc(C(=O)N[C@@H](CCC(=O)O)C(=O)O)cc3)c2c(=O)[nH]1 [PMX, Pemetrexed]
Papp at 5 h, 50 µg/mL [1]: 1.2 ± 0.349 ×10⁻⁶ cm/s | CRT- and HMGB-1-protein content compared to untreated and DL-treated cells (CT26.CL25 cells): higher | CD4+ T-cell population in tumor compared to control [2]: substantially increased | CD45+ cell infiltration in tumor compared to control [2]: slightly increased | PD-L1 expression in tumor cells, times greater compared to the control group [2]: two | Mice alive (survival) [3]: 50% | logP [4]: -1.14 ± 0.01
